SMILES strings stand for the structures.

In general, IC50 refers to the concentration needed to halve the response being measured.

T1 sequence (Q06187 whole entry): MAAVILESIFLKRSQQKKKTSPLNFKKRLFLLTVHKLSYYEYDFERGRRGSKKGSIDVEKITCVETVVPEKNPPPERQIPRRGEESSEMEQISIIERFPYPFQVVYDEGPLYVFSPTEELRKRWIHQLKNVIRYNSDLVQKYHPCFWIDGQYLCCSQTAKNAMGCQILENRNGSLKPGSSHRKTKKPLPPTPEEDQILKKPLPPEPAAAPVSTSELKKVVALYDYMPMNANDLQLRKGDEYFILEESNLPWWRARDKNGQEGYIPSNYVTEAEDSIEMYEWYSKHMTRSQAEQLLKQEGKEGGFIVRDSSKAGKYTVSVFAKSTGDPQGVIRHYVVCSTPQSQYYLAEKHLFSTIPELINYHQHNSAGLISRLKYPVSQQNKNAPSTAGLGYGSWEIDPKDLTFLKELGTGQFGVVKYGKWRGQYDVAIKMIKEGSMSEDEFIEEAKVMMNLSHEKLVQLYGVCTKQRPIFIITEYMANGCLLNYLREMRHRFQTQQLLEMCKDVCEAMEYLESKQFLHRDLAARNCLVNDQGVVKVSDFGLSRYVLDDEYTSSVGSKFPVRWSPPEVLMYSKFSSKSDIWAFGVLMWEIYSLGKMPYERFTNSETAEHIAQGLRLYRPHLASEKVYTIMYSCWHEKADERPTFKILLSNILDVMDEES

The assay addresses T1, BTK enzyme (Homo sapiens, UniProt Q06187).
T1 construct: purchased Upstate 14-552
The assay can be described thus: In vitro BTK kinase assay: BTK-POLYGAT-LS assay. The format is biochemical. To be noted: ATP 10 μM, read-out: IC50 (10uMATP). Here is the method:
The purpose of the BTK in vitro assay is to determine compound potency against BTK through the measurement of IC50. […] For a typical assay, a 24 μL aliquot of a ATP/peptide master mix (final concentration; ATP 10 μM, polyGAT 100 nM) in kinase buffer (10 mM Tris-HCl pH 7.5, 10 mM MgCl2, 200 μM Na3PO4, 5 mM DTT, 0.01% Triton X-100, and 0.2 mg/ml casein) is added to each well. […] The assay is incubated for 30 minutes before being stopped with 28 μL of a 50 mM EDTA solution. […] The plate is covered and incubated for 45 minutes at room temperature.
For `Cc1cc(-c2ccnc(Nc3conc3C)n2)ccc1CNC(=O)c1cnc(C(C)(C)C)s1` [Example I-57, 2-(tert-butyl)-N-(2-methyl-4-(2-((3-methylisoxazol-4-yl)amino)pyrimidin-4-yl)benzyl)thiazole-5-carboxamide], the IC50 is under 10 nM.
As for `Cc1cc(-c2ccnc(N)n2)ccc1CNC(=O)c1cc2n(n1)CCNC2` [Example I-76, N-(4-(2-aminopyrimidin-4-yl)-2-methylbenzyl)-4,5,6,7-tetrahydro pyrazolo[1,5-a]pyrazine-2-carboxamide], the figure is over 10000 nM; as for `Cn1cc(Nc2nccc(-c3ccc4c(c3)OCCC4NC(=O)c3cnc(C(C)(C)C)s3)n2)cn1` (stereo not shown) [Example I-97, 2-(tert-butyl)-N-(7-(2-((1-methyl-1H-pyrazol-4-yl)amino)pyrimidin-4-yl)chroman-4-yl)thiazole-5-carboxamide], under 10 nM.
The same measure for `Cc1cc(-c2cc(Nc3nnn(C)n3)ncn2)ccc1CNC(=O)c1cnc(C(C)(C)C)s1` [Example I-68, 2-(tert-butyl)-N-(2-methyl-4-(6-((2-methyl-2H-tetrazol-5-yl)amino)pyrimidin-4-yl)benzyl)thiazole-5-carboxamide]: 10 to 99 nM; for `Cc1cc(-c2ccnc(Nc3cnn(C)c3)n2)ccc1CNC(=O)c1cnn(C(C)(C)C)c1` [Example I-154, 1-(tert-butyl)-N-(2-methyl-4-(2-((1-methyl-1H-pyrazol-4-yl)amino)pyrimidin-4-yl)benzyl)-1H-pyrazole-4-carboxamide]: under 10 nM.
The same measure for `CN1CCN(c2ccc(Nc3nccc(-c4ccc5c(c4)CCCC5NC(=O)c4cnc(C(C)(C)C)s4)n3)nc2)CC1` (stereo not shown) [Example I-96, 2-(tert-butyl)-N-(6-(2-((5-(4-methylpiperazin-1-yl)pyridin-2-yl)amino)pyrimidin-4-yl)-1,2,3,4-tetrahydronaphthalen-1-yl)thiazole-5-carboxamide]: 10 to 99 nM; for `CN1CCn2nc(Nc3cc(-c4ccc5c(c4)CCCC5NC(=O)c4cnc(C(C)(C)C)s4)ncn3)cc2C1` (stereo not shown) [Example I-134, 2-(tert-butyl)-N-(6-(6-((5-methyl-4,5,6,7-tetrahydropyrazolo[1,5-a]pyrazin-2-yl)amino)pyrimidin-4-yl)-1,2,3,4-tetrahydronaphthalen-1-yl)thiazole-5-carboxamide]: under 10 nM.
In the case of `Cn1cc(Nc2cc(-c3ccc4c(c3)CCCC4NC(=O)c3cc4c(s3)CCOC4)ncn2)cn1` (stereo not shown) [Example I-94, N-(6-(6-((1-methyl-1H-pyrazol-4-yl)amino)pyrimidin-4-yl)-1,2,3,4-tetrahydronaphthalen-1-yl)-6,7-dihydro-4H-thieno[3,2-c]pyran-2-carboxamide], the IC50 was in the range of 100 to 999 nM.
Turning to `Cc1cc(-c2ccnc(Nc3cnn(C)c3)n2)ccc1CNC(=O)[C@H]1CC[C@H](C(F)(F)F)CC1` [Example I-11, trans-N-(2-methyl-4-(2-((1-methyl-1H-pyrazol-4-yl)amino)pyrimidin-4-yl)benzyl)-4-(trifluoromethyl)cyclohexanecarboxamide], the IC50 was 10 to 99 nM.
Consider `Cc1cc(-c2ccnc(Nc3cnn(C)c3)n2)ccc1CNC(=O)c1cnn(C)c1` [Example I-157, 1-Methyl-N-(2-methyl-4-(2-((1-methyl-1H-pyrazol-4-yl)amino)pyrimidin-4-yl)benzyl)-1H-pyrazole-4-carboxamide], for which the IC50 lay within 10 to 99 nM.
Turning to `Cc1cc(-c2ccnc(N)n2)ccc1CNC(=O)c1cn2c(n1)CNCC2` [Example I-74, N-(4-(2-aminopyrimidin-4-yl)-2-methylbenzyl)-5,6,7,8-tetrahydroimidazo[1,2-a]pyrazine-2-carboxamide], the IC50 lay within 1000 to 10000 nM.
As to `Cc1cc(-c2ccnc(N)n2)ccc1CNC(=O)[C@@H]1CC[C@@H]2CNCCN2C1` [Example I-79, (7R,9aR)—N-(4-(2-aminopyrimidin-4-yl)-2-methylbenzyl)octahydro-1H-pyrido[1,2-a]pyrazine-7-carboxamide], the IC50 was 1000 to 10000 nM.
As for `Cc1nc(-c2ccnc(Nc3cnn(C)c3)n2)ccc1CNC(=O)c1cc2c(s1)CCOC2` [Example I-104, N-((2-methyl-6-(2-((1-methyl-1H-pyrazol-4-yl)amino)pyrimidin-4-yl)pyridin-3-yl)methyl)-6,7-dihydro-4H-thieno[3,2-c]pyran-2-carboxamide], the figure is 100 to 999 nM.
For `Cc1cc(-c2ccnc(N)n2)ccc1CNC(=O)c1nc2c(s1)CNCC2` [Example I-75, N-(4-(2-aminopyrimidin-4-yl)-2-methylbenzyl)-4,5,6,7-tetrahydrothiazolo[5,4-c]pyridine-2-carboxamide], the IC50 was 1000 to 10000 nM.
As to `CNCc1cc(-c2ccnc(N)n2)ccc1CNC(=O)c1cc2c(s1)CCCC2` [Example I-145, N-(4-(2-aminopyrimidin-4-yl)-2-((methylamino)methyl)benzyl)-4,5,6,7-tetrahydrobenzo[b]thiophene-2-carboxamide], the IC50 was in the range of 100 to 999 nM.
As for `Cc1nnc(Nc2nccc(-c3ccc(CNC(=O)c4cnc(C(C)(C)C)s4)c(C)c3)n2)s1` [Example I-59, 2-(tert-butyl)-N-(2-methyl-4-(2-((5-methyl-1,3,4-thiadiazol-2-yl)amino)pyrimidin-4-yl)benzyl)thiazole-5-carboxamide], the figure is 10 to 99 nM; as for `Cc1cc(-c2cc(Nc3cc4n(n3)CCN(C)C4)ncn2)ccc1CNC(=O)c1cnn(C(C)(C)C)c1` [Example I-150, 1-(tert-butyl)-N-(2-methyl-4-(6-((5-methyl-4,5,6,7-tetrahydropyrazolo[1,5-a]pyrazin-2-yl)amino)pyrimidin-4-yl)benzyl)-1H-pyrazole-4-carboxamide], under 10 nM.
In the case of `Cc1cc(-c2ccnc(Nc3ccc(N(C)C)cn3)n2)ccc1CNC(=O)c1cnc(C(C)(C)C)s1` [Example I-61, 2-(tert-butyl)-N-(4-(2-((5-(dimethylamino)pyridin-2-yl)amino)pyrimidin-4-yl)-2-methylbenzyl)thiazole-5-carboxamide], the IC50 lay in the range of 10 to 99 nM.
The same measure for `Cc1cc(-c2ccnc(Nc3cnn(C)c3)n2)ccc1CNC(=O)c1cc2c(s1)CCNC2C` (stereo not shown) [Example I-14, 4-methyl-N-(2-methyl-4-(2-((1-methyl-1H-pyrazol-4-yl)amino)pyrimidin-4-yl)benzyl)-4,5,6,7-tetrahydrothieno[3,2-c]pyridine-2-carboxamide]: 10 to 99 nM; for `Cc1cc(-c2cc(Nc3cc4n(n3)CCCN(C(=O)OC(C)(C)C)C4)ncn2)ccc1CNC(=O)c1cnc(C(C)(C)C)s1` [Example I-149, tert-butyl 2-((6-(4-((2-(tert-butyl)thiazole-5-carboxamido)methyl)-3-methylphenyl)pyrimidin-4-yl)amino)-7,8-dihydro-4H-pyrazolo[1,5-a][1,4]diazepine-5(6H)-carboxylate]: under 10 nM; for `Cc1cc(-c2ccnc(Nc3ccccn3)n2)ccc1CNC(=O)c1cnc(C(C)(C)C)s1` [Example I-60, 2-(tert-butyl)-N-(2-methyl-4-(2-(pyridin-2-ylamino)pyrimidin-4-yl)benzyl)thiazole-5-carboxamide]: 10 to 99 nM.
Turning to `Cc1cc(-c2ccnc(Nc3cnn(C)c3)n2)ccc1CNC(=O)c1cc2n(n1)CCCC2` [Example I-159, N-(2-Methyl-4-(2-((1-methyl-1H-pyrazol-4-yl)amino)pyrimidin-4-yl)benzyl)-4,5,6,7-tetrahydropyrazolo[1,5-a]pyridine-2-carboxamide], the IC50 is under 10 nM.

(Values after patent publication US10759783B2, “Biaryl inhibitors of Bruton'S tyrosine kinase” (BIOGEN MA INC., priority 2013, dated 2020).)
